Some test systems named below: SK-MEL-28; HOP-62; RXF 393; EKVX; M14; MOLT-4; 786-0; HCT-15; SK-MEL-2; SNB-75; ACHN; OVCAR-4; BT-549; HOP-92; SF-295; UACC-62; TK-10; SK-OV-3; NCI-H23; LXFL 529.
Holding throughout (assay): NCI tumour cell line growth inhibition, 48 h

Structures are written as SMILES.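 Five compound concentrations were applied to cells in 96-well plates for 48 hours; endpoints were derived by simple linear interpolation of the resulting dose-response curve. Here, GI50 denotes the concentration required for 50% inhibition of growth.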 Calls of active or inactive are those of the source. No stated cut-off is given here; in the data, active = GI50 up to about 1.1 µM and inactive = higher.

As for `COC1/C=C/OC2(C)Oc3c(C)c(O)c4c(c3C2=O)C(=O)C=C(NC(=O)/C(C)=C\C=C\C(C)C(OC=O)C(C)C(O)C(C)C(OC(C)=O)C1C)C4=O` (stereo unspecified), the GI50 in the assay with SK-MEL-28 is 6.64 µM (inactive); with HOP-62, 18.7 µM (inactive); in the assay with RXF 393, 7.67 µM (inactive); in the assay with EKVX it was 14.7 µM (inactive); in the assay with M14, 8.65 µM (inactive); in the assay with MOLT-4, 3.01 µM (inactive). In addition, the GI50 in the assay with 786-0 is 8.24 µM (inactive); with HCT-15, 8.61 µM; with SK-MEL-2, 20 µM (inactive); with SNB-75, 18.3 µM (inactive); with ACHN, 8.67 µM (inactive); in the assay on OVCAR-4 it was 7.4 µM (inactive). The GI50 in the assay on BT-549 is 11.1 µM (inactive); with HOP-92, 13.5 µM (inactive); in the assay on SF-295, 23.3 µM (inactive); with UACC-62, 12.7 µM (inactive); with TK-10, 16.6 µM (inactive); with SK-OV-3, 28.7 µM (inactive). Moreover, the GI50 in the assay on NCI-H23 was 14.4 µM (inactive); in the assay with LXFL 529, 6.5 µM (inactive).

As for `CC1NOC(=O)C1/N=N/c1ccc(Cl)cc1Cl` (stereo unspecified), the GI50 is 38.9 µM (inactive) in the assay on SK-MEL-28; 43 µM (inactive) in the assay on HOP-62; 20.7 µM (inactive) in the assay with RXF 393; 24.6 µM (inactive) in the assay with EKVX; 21 µM (inactive) in the assay on M14; 19.6 µM (inactive) with MOLT-4. Besides, the GI50 was 18.7 µM (inactive) with 786-0; 18.5 µM with HCT-15; 23.8 µM (inactive) in the assay with SK-MEL-2; 20.9 µM (inactive) in the assay with SNB-75; 21.4 µM (inactive) in the assay on ACHN; 21.6 µM (inactive) with OVCAR-4. Further, the GI50 with HOP-92 was 19.8 µM (inactive); in the assay with SF-295, 28.8 µM (inactive); in the assay on UACC-62, 30.7 µM (inactive); in the assay on TK-10, 23.8 µM (inactive); in the assay on SK-OV-3, 29.3 µM (inactive); with NCI-H23, 20.8 µM (inactive). The GI50 in the assay with LXFL 529 was 21.9 µM (inactive).

For the compound `CCNC(=O)C#CC(=O)NCC`, the GI50 is > 10 µM (inactive) in the assay on SK-MEL-28; > 100 µM (inactive) in the assay with HOP-62; > 10 µM (inactive) with RXF 393; > 100 µM (inactive) in the assay with EKVX; > 100 µM (inactive) in the assay on M14; > 100 µM (inactive) with MOLT-4. Besides, the GI50 with 786-0 was > 100 µM (inactive); with HCT-15, more than 42.6 µM; in the assay with SK-MEL-2, > 100 µM (inactive); in the assay on SNB-75 it was > 69 µM (inactive); in the assay with ACHN it was > 100 µM (inactive); in the assay with OVCAR-4, > 100 µM (inactive). Besides, the GI50 in the assay with HOP-92, in the assay with SF-295, with UACC-62, in the assay with TK-10, in the assay on SK-OV-3 and in the assay with NCI-H23 was > 100 µM (inactive) each time. Also, the GI50 in the assay on LXFL 529 is > 93.8 µM (inactive).

Regarding `Cc1cc(=O)oc2cc(OCc3nc4ccccc4c(=O)n3-c3ccccc3)ccc12`, the GI50 with SK-MEL-28 was > 100 µM (inactive); in the assay on HOP-62 it was 97.7 µM (inactive); in the assay with RXF 393 it was 34 µM (inactive); in the assay on EKVX, > 100 µM (inactive); with M14, > 100 µM (inactive); in the assay with MOLT-4, > 100 µM (inactive). For the same compound, the GI50 in the assay on 786-0 is 38.4 µM (inactive); with HCT-15, more than 100 µM; in the assay with SK-MEL-2, > 100 µM (inactive); in the assay with SNB-75, 20.7 µM (inactive); with ACHN, > 100 µM (inactive); in the assay with OVCAR-4 it was > 100 µM (inactive). Besides, the GI50 is 28.1 µM (inactive) in the assay with HOP-92; 58.2 µM (inactive) in the assay with SF-295; > 100 µM (inactive) in the assay with UACC-62; > 100 µM (inactive) in the assay on TK-10; 53.6 µM (inactive) with SK-OV-3; > 100 µM (inactive) with NCI-H23. In the assay on LXFL 529, the GI50 is > 100 µM (inactive).

`CC(C)(C)c1cc(Oc2ccc(C#N)c(C#N)c2)cc(C(C)(C)C)c1`: the GI50 with SK-MEL-28, with HOP-62, with RXF 393, in the assay with EKVX, with M14 and in the assay with MOLT-4 was > 100 µM (inactive) in each case. For the same compound, the GI50 is 90.2 µM (inactive) with 786-0; 48.3 µM in the assay on HCT-15; > 100 µM (inactive) in the assay on SK-MEL-2; > 100 µM (inactive) in the assay with SNB-75; > 100 µM (inactive) with ACHN; > 100 µM (inactive) in the assay with OVCAR-4. Further, the GI50 in the assay with HOP-92, in the assay with SF-295, with UACC-62, in the assay with TK-10, in the assay with SK-OV-3 and with NCI-H23 was > 100 µM (inactive) each time. For the same compound, the GI50 in the assay with LXFL 529 was > 100 µM (inactive).

The values above are taken from ChEMBL document CHEMBL1201862, “PubChem BioAssay data set” (2004).
